This note sets out measurements from paper PMC11862924, “Phenylpyrazoles as Inhibitors of the m^6A RNA-Binding Protein YTHDF2” (JACS Au, 2025).

“Also recorded” adds a separate entry of the source. Where only a bound is given, the exact number is not on record here.

One series deals with HCT116. Description: CCK-8 proliferation assay, HCT116. Format: cell-based. The settings on record: Homo sapiens, HCT-116; CCK-8 kit assay, triplicates, 72 h; read-out: Anti-proliferation activity against cancer cells (IC50), HCT116. The protocol:
(§1) The JAR, K562, HCT116, and MOLM13 cells were seeded in 96-well plates (3000 cells/well). After being cultured overnight, compounds were added together with the DMSO treatment (0.1%) as a control. After 72 h, CCK-8 solution (Vazyme, A311) was added, and the cells were incubated at 37 °C for 4 h. The absorbance was measured at 450 nm using a plate reader (TECAN Spark).

The target of series [1] is T1, YTHDF2 (Homo sapiens, UniProt Q9Y5A9).
T1 construct: A YTHDF2 YTH domain construct (residues 383–553) was subcloned to a pOPIN plasmid; made in house; host or cells: Escherichia coli BL21(DE3)
T1 sequence (Q9Y5A9 383-553): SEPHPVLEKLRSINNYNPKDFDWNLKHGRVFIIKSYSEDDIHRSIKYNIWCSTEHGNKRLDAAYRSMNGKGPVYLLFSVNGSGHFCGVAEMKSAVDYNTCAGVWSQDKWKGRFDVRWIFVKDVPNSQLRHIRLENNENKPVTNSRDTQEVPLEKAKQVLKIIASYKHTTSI
Description: Electrophoretic mobility shift assay (EMSA). Format: binding. The note with it: for inhibition of the YTHDF2–m6A RNA interaction in EMSA at 100 μM (in words): 100 μM compound, 250 nM YTHDF2, FAM-labeled m6A RNA; for concentration-dependent inhibition of YTHDF2–m6A RNA complex formation in EMSA (in words): 3.1–100 μM compound, 250 nM YTHDF2, 20 nM FAM-labelled m6A RNA. The protocol: Compounds with different concentrations (3.1–100 μM) were incubated with 250 nM YTH-domain and 20 nM FAM-17mer-RNA in a buffer containing 20 mM HEPES, pH 8.2, 50 mM NaCl, 0.05% Triton X-100, and 5% v/v glycerol for 20 min at 4 °C. […] Gel imaging was performed in ChemiDoc MP (Bio-Rad), and Cy2/Alexa488 fluorescence was detected with a 1-min exposure time. Quantification of the gel image was performed by ImageJ.
For orientation: In EMSA bound probe runs differently from free probe, usually more slowly.

The target in series [2] is T1, YTHDF2. Description: nanoDSF thermal shift assay. Format: binding. The settings on record: for ΔTm at 5 µM: 5 μM compound; for ΔTm at 10 µM: 10 μM compound. The method, then: NanoDSF was measured on a NanoTemper instrument (Prometheus NT.48). YTHDF2 protein was used at a concentration of 5 μM and incubated with 50, 25, 10, and 5 μM compound in buffer (100 mM KPi, pH 7.0, 250 mM NaCl, 10% Glycerol) for 50 min, in which 0.1% DMSO was used as the reference. The heat rate was set to 1 °C per minute, measured in a range between 20 and 90 °C.
On the technique in general: In DSF a fluorescence change marks the thermal transition of the protein.

Series [3] has as its target T2, YTHDF3 (residues 391-585) (Homo sapiens, UniProt Q7Z739).
T2 construct: YTHDF3 (residues 391–585); made in house; host or cells: Escherichia coli BL21(DE3); plasmid from the Zhou lab (Boston College)
T2 sequence (Q7Z739 391-585): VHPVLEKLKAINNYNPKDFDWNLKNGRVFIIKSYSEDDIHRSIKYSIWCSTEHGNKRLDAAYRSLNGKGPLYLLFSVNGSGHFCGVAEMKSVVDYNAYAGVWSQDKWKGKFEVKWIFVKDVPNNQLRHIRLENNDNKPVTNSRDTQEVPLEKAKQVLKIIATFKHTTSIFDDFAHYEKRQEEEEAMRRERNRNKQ
Description: FP assay with YTH domain of YTHDF3. The note with it: 2.0 µM YTHDF3. Format: binding. The protocol: The FP assay was performed in 384-well black plates (Corning no. 4514) with a total reaction volume of 15 μL. The final concentrations of protein (YTHDF2) and RNA were […], respectively, in a buffer containing 20 mM HEPES/KOH pH 7.5, 50 mM NaCl, 0.005% Tween 20, and 1 mM GSH (DTT). Compounds were incubated with protein, added FAM-m^6A RNA probe ([…](m6)ACUGUG) (purchased from IDT), and incubated at 4 °C for 30 min. The fluorescence polarization was measured using a plate reader (TECAN Spark) under an excitation wavelength of 485 nm and an emission wavelength of 535 nm with a bandwidth of 20 nm. […] The data were determined using GraphPad Prism 9.
Figure S9. The FP assay of YTHDF3 binding to the m6A RNA substrate. (A) The purification of YTHDF3 (residues 391-585), molecular weight: 24.1 kDa. (B) The anisotropy values using different concentrations of YTHDF3 with the m6A RNA probe (4 nM), which was used to decide the appropriate […] concentration for the FP (2.0 µM of YTHDF3, Z-factor: 0.55). (C) The […]
(1 picture or pasted object on this page, not shown here)

For a further series, the system named is K562. Description: CCK-8 proliferation assay, K562. Format: cell-based. The settings on record: Homo sapiens, CCK-8 kit assay, triplicates, 72 h, read-out: Anti-proliferation activity against cancer cells (IC50), K562. The protocol: as §1
The test system of series [4] is K562 cells. Description: Cell cycle analysis by flow cytometry. The note with it: 24 h. Format: cell-based, human. The protocol:
K562 cells were seeded in 6-well plates (1.0 × 10^6 cells/well) and incubated overnight. Compounds of different concentrations were added to the 6-well plates. The cell cycle analysis kit (SIGMA-Aldrich, MAK344) was used after incubation for 24 h. The cells were detached with trypsin and washed with 2 mL of ice-cold cell cycle assay buffer for each sample. The supernatant was removed after centrifugation. The cells were fixed by adding 2 mL of ice-cold 70% ethanol (added dropwise while vortexing) to the cell pellet and then placed on ice for 30 min. The supernatant was removed after centrifuging at 400 × g for 5 min. Cells were washed with a cell cycle assay buffer (2 mL). Cells were resuspended completely in 500 μL of staining solution and were protected from light exposure. After being incubated at room temperature for 30 min, each sample was analyzed by flow cytometry (Sony Biotechnology Cell Sorter SH800S) with proper machine settings. The data were analyzed by cell sorter software (Sony Biotechnology).
(In general: Flow cytometry measures light scatter and fluorescence of single cells or particles in a stream.)

Series [5] relates to K562 cells. Description: Apoptosis assay (Annexin V/PI flow cytometry). Format: cell-based, human. The settings on record: 24 h. The method, then:
(§2) K562 cells were seeded in six-well plates (1.0 × 10^6 cells/well) and incubated overnight. Compounds of different concentrations were added to the 6-well plates. After incubation for 24 h, the cells were detached with trypsin, washed twice with PBS and cold BioLegend’s cell staining buffer, and then, 5 μL of FITC Annexin V and 10 μL of propidium iodide solution were added. The cells were gently vortexed and incubated in a dark environment for 15 min at room temperature (25 °C). After adding 400 μL of Annexin V binding buffer to each tube, each sample was analyzed by flow cytometry (Sony Biotechnology Cell Sorter SH800S) with proper machine settings, and the data were analyzed by cell sorter software (Sony Biotechnology).

Series [6] can be described thus: Apoptosis assay (Annexin V/PI flow cytometry). Format: cell-based, human. The note with it: human, K562 cells, read-out: Q3: viable. The protocol: as §2

Take `O=C(O)c1ccc(-n2cc(C(=O)c3cc(Cl)cc(Cl)c3O)cn2)cc1` [CK-61]: the IC50 in the series on HCT116 is greater than 50 µM. At YTHDF2 [1], the “inhibition of the YTHDF2–m6A RNA interaction in EMSA at 100 μM (in words)” value is listed as “potent inhibition; also recorded: potently inhibited” and the “concentration-dependent inhibition of YTHDF2–m6A RNA complex formation in EMSA (in words)” value is “potent inhibition”. Further, on YTHDF2 [2], the thermal shift (ΔTm) at 5 µM is 0.94 ± 0.58 °C and the ΔTm at 10 µM was determined as 1.56 ± 0.41 °C. The ΔTm at 25 µM on YTHDF2 [2] (25 μM compound) was found to be 3.21 °C. Besides, the inhibition at 100 µM in series [3] (read-out: inhibition of YTHDF3 at 100 μM in FP, 100 μM compound) is 12.4%. In addition, the IC50 in the series with K562 was greater than 50 µM.
Regarding `O=C(O)c1ccc(-n2cc(C(=O)c3c(O)ccc4ccccc34)cn2)cc1` [CK-75], in the series on K562 cells [4] (25 μM), the “cells in the G0/G1 phase” value is on record as greater than 70%. Also, in the series with K562 cells [4], the “cell cycle arrest (in words)” value was “induced cell cycle arrest in the G0/G1 phase concentration-dependently”. The “total apoptosis (Q2 + Q4)” value in the series with K562 cells [5] (25 μM) amounted to 28.3%; with K562 cells [5] (50 μM), 34.9%; in the series on K562 cells [5] (100 μM) it was 45.4%. Besides, in series [6] (25 μM), the viability at 24 h, 25 µM was determined as 71.6%. The viability at 24 h, 50 µM in series [6] (50 μM) was found to be 65.1%. Moreover, the viability at 24 h, 100 µM in series [6] (100 μM) amounted to 54.5%. In series [3], the “inhibitory activity against YTHDF3 in FP (in words)” value was “inactive”.
`Cc1cc(O)c(C(=O)c2cnn(-c3ccc(C(=O)O)cc3)c2)cc1Cl` [CK-79]: the IC50 in the series with HCT116 is 44 ± 6.8 µM. Further, at YTHDF2 [1], the “inhibition of the YTHDF2–m6A RNA interaction in EMSA at 100 μM (in words)” value is “potent inhibition; also recorded: potently inhibited” and the “concentration-dependent inhibition of YTHDF2–m6A RNA complex formation in EMSA (in words)” value is recorded as “potent inhibition”. For the same compound, at YTHDF2 [2], the ΔTm at 5 µM turned out to be 0.96 ± 0.08 °C and the ΔTm at 10 µM turned out to be 1.39 ± 0.37 °C. Also, the IC50 with K562 amounted to 28.1 ± 1.6 µM.

In general, ΔTm refers to the change in melting temperature against a reference sample. In general, inhibition refers to the change of the read-out against control, counted positive when it falls.
